Reference: patent US4327097A, “Novel penicillins” (Toyama Chemical Co., Ltd., priority 1974, dated 1982)
Converted amounts (≈) assume the structure as drawn.

Tests used:
[1] = tested on: Escherichia coli NIHJ; experiment: MIC, plate method, standard strains; assay type: cell-based; conditions: Table 4, standard strain; unit assumed
In short: (§1)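 Minimum inhibitory concentrations are determined by agar plate dilution using Heart infusion agar (pH 7.4). Each plate receives an inoculum of 10^4 cells.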

[2] = tested on: Klebsiella pneumoniae; experiment: MIC, plate method, standard strains; assay type: cell-based; conditions: Table 4, standard strain; unit assumed
In short: as §1

[3] = tested on: Proteus vulgaris 3027; experiment: MIC, plate method, standard strains; assay type: cell-based; conditions: Table 4, standard strain; unit assumed
In short: as §1

[4] = tested on: Pseudomonas aeruginosa I.F.O.; experiment: MIC, plate method, standard strains; assay type: cell-based; conditions: Table 4, standard strain; unit assumed
In short: as §1

[5] = tested on: Staphylococcus aureus 209p; experiment: MIC, plate method, standard strains; assay type: cell-based; conditions: Table 4, standard strain; unit assumed
In short: as §1

[6] = tested on: Staphylococcus aureus; experiment: MIC against clinical isolates; assay type: cell-based; conditions: Table 6-1, clinical isolate; unit assumed
[7] = tested on: Escherichia coli; experiment: MIC against clinical isolates; assay type: cell-based; conditions: Table 6-2, clinical isolate; unit assumed
[8] = tested on: Pseudomonas aeruginosa; experiment: MIC against clinical isolates; assay type: cell-based; conditions: unit assumed; for MIC Pseudomonas aeruginosa GN / MIC Pseudomonas aeruginosa GN4 / MIC Pseudomonas aeruginosa GN 82 / MIC Pseudomonas aeruginosa GN 221 / MIC Pseudomonas aeruginosa GN 376 / MIC Pseudomonas aeruginosa GN 1035 / MIC Pseudomonas aeruginosa GN 1091 / MIC Pseudomonas aeruginosa GN 2565: Table 6-3, clinical isolate; for MIC Pseudomonas aeruginosa GN: strain number not given; for MIC Pseudomonas aeruginosa S-1: Table 6-4, clinical isolate
[9] = tested on: Klebsiella pneumoniae; experiment: MIC against clinical isolates; assay type: cell-based; conditions: Table 6-4, clinical isolate; unit assumed
[10] = tested on: Proteus mirabilis; experiment: MIC against clinical isolates; assay type: cell-based; conditions: Table 6-5, clinical isolate; unit assumed
[11] = tested on: Proteus morganii; experiment: MIC against clinical isolates; assay type: cell-based; conditions: Table 6-5, clinical isolate; unit assumed
[12] = tested on: Proteus vulgaris; experiment: MIC against clinical isolates; assay type: cell-based; conditions: Table 6-5, clinical isolate; unit assumed
[13] = tested on: Proteus rettgeri; experiment: MIC against clinical isolates; assay type: cell-based; conditions: Table 6-5, clinical isolate; unit assumed
[14] = target: β-lactamase, Escherichia freundii GN 346 (Citrobacter freundii, UniProt Q46041); experiment: Resistant activity against β-lactamase, iodometric assay; assay type: biochemical; conditions: control Cephalorizine = 100
Sequence of β-lactamase, Escherichia freundii GN 346 (Q46041 entry or part of it): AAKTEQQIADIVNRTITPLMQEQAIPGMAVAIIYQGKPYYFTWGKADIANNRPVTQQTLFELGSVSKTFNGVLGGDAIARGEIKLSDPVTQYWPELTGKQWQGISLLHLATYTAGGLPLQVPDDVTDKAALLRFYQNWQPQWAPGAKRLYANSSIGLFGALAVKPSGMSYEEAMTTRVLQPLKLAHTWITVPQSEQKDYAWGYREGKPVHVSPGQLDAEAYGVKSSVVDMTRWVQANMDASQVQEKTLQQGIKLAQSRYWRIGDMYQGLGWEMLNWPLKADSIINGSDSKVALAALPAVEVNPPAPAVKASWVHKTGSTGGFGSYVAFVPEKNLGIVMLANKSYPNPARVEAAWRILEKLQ
Method: (§2) (4) Resistant activity of each cephalosporin compound against β-lactamase, Proteus vulgaris GN 76 and Escherichia freundii GN 346:
(§3) The resistant activity of each cephalosporin compound against β-lactamase was measured in the manner described below.
(§4) β-lactamase was prepared from Proteus vulgaris GN 76 and Escherichia freundii GN 346. 10 ml of an overnight culture in Heart Infusion broth was diluted with 100 ml of a medium containing 2 g of yeast extract, 10 g of polypeptone, 2 g of glucose, 7 g of disodium hydrogen phosphate, 2 g of potassium dihydrogen phosphate, 1.2 g of ammonium sulfate and 0.4 g of magnesium sulfate, per liter, and incubated with shaking at 37° C. After incubation of 2 hrs, Penicillin G (50 μg/ml) was added as the inducer, and further incubated for 2 hrs. The resulting cells were collected by centrifugation (5,000 r.p.m.×10 min.) and washed two times with 0.1 M phosphate buffer (pH 7.0). Subsequently, the cells were subjected to sonication (20 KHz, 5 min.) and then centrifuged at 15,000 r.p.m. for 60 min. By using the supernatant of enzyme fluid, the stability of each compound against β-lactamase was determined by the iodometric assay method. Each numeral shown in Table 7-2 is a relative activity value calculated by assuming as 100 the activity of the control Cephalorizine.

[15] = target: T1, β-lactamase, Proteus vulgaris GN 76 (Proteus vulgaris, UniProt P52664); experiment: as above; assay type: biochemical; conditions: control Cephalorizine = 100
T1 construct: By using the supernatant of enzyme fluid; endogenous in cells; host or cells: Proteus vulgaris GN 76 (penicillin G-induced cells, sonicated, 15,000 r.p.m. supernatant)
T1 sequence (P52664 30-300): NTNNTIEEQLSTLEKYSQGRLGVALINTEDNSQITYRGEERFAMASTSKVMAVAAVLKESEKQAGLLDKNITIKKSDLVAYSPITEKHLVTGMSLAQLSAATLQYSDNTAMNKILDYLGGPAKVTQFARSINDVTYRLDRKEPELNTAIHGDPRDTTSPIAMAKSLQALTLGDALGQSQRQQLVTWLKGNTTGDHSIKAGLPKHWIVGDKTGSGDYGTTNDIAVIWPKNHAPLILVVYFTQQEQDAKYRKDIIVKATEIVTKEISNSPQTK
Method: as §2, §3, §4

SMILES	MIC Escherichia coli NIHJ [1] [µg/mL]	MIC Klebsiella pneumoniae [2] [µg/mL]	MIC Proteus vulgaris 3027 [3] [µg/mL]	MIC Pseudomonas aeruginosa I.F.O. [4] [µg/mL]	MIC Staphylococcus aureus 209p [5] [µg/mL]	MIC Staphylococcus aureus F-1 [6] [µg/mL]	MIC Staphylococcus aureus MS 8588 [6] [µg/mL]	MIC Staphylococcus aureus MS 8596 [6] [µg/mL]	MIC Staphylococcus aureus MS 8619 [6] [µg/mL]	MIC Staphylococcus aureus MS 8684 [6] [µg/mL]	MIC Escherichia coli GN 3435 [7] [µg/mL]	MIC Escherichia coli GN 3452 [7] [µg/mL]	MIC Escherichia coli GN 3465 [7] [µg/mL]	MIC Escherichia coli K-2 [7] [µg/mL]	MIC Escherichia coli K-4 [7] [µg/mL]	MIC Pseudomonas aeruginosa GN [8] [µg/mL]	MIC Pseudomonas aeruginosa GN4 [8] [µg/mL]	MIC Pseudomonas aeruginosa GN 82 [8] [µg/mL]	MIC Pseudomonas aeruginosa GN 221 [8] [µg/mL]	MIC Pseudomonas aeruginosa GN 376 [8] [µg/mL]	further results
CCCCN1CCN(C(=O)NC(C(=O)NC2C(=O)N3C(C(=O)O)=C(CSc4nnnn4C)CSC23)c2ccccc2)C(=O)C1=O (single isomer, unassigned) [Compound No. 73]	< 0.1	0.2 (≈ 0.304 µM)	1.57 (≈ 2.39 µM)	25 (≈ 38 µM)	1.57 (≈ 2.39 µM)	1.56 (≈ 2.37 µM)	1.56 (≈ 2.37 µM)	3.13 (≈ 4.76 µM)	1.56 (≈ 2.37 µM)	1.56 (≈ 2.37 µM)	0.78 (≈ 1.19 µM)	0.78 (≈ 1.19 µM)	1.56 (≈ 2.37 µM)	1.56 (≈ 2.37 µM)	0.78 (≈ 1.19 µM)	12.5 (≈ 19 µM)	12.5 (≈ 19 µM)	12.5 (≈ 19 µM)	12.5 (≈ 19 µM)	12.5 (≈ 19 µM)	MIC Pseudomonas aeruginosa GN 1035 [8]: 50 µg/mL (≈ 76 µM); MIC Pseudomonas aeruginosa GN 1091 [8]: 12.5 µg/mL (≈ 19 µM); MIC Pseudomonas aeruginosa GN 2565 [8]: 25 µg/mL (≈ 38 µM); MIC Pseudomonas aeruginosa S-1 [8]: 50 µg/mL (≈ 76 µM); MIC Klebsiella pneumoniae GN 917 [9]: 0.78 µg/mL (≈ 1.19 µM); MIC Klebsiella pneumoniae GN 4081 [9]: 1.56 µg/mL (≈ 2.37 µM); MIC Proteus mirabilis [10]: 0.39 µg/mL (≈ 0.593 µM); MIC Proteus morganii [11]: 0.78 µg/mL (≈ 1.19 µM); MIC Proteus vulgaris [12]: 0.78 µg/mL (≈ 1.19 µM); MIC Proteus rettgeri [13]: 3.13 µg/mL (≈ 4.76 µM); Relative activity (%) against β-lactamase, E. freundii GN 346 [14]: 0.1%; Relative activity (%) against β-lactamase, Pr. vulgaris GN 76 [15]: 4%
CCCCCCCCN1CCN(C(=O)N[C@@H](C(=O)NC2C(=O)N3C(C(=O)O)=C(CSc4nnnn4C)CSC23)c2ccccc2)C(=O)C1=O (single isomer, unassigned) [Compound No. 74]	0.2 (≈ 0.28 µM)	0.79 (≈ 1.11 µM)	1.57 (≈ 2.2 µM)	12.5 (≈ 17.5 µM)	1.57 (≈ 2.2 µM)	0.78 (≈ 1.09 µM)	0.78 (≈ 1.09 µM)	0.78 (≈ 1.09 µM)	0.78 (≈ 1.09 µM)	0.78 (≈ 1.09 µM)	0.78 (≈ 1.09 µM)	1.56 (≈ 2.19 µM)	1.56 (≈ 2.19 µM)	3.13 (≈ 4.38 µM)	1.56 (≈ 2.19 µM)	25 (≈ 35 µM)	50 (≈ 70 µM)	25 (≈ 35 µM)	50 (≈ 70 µM)	50 (≈ 70 µM)	MIC Pseudomonas aeruginosa GN 1035 [8]: 25 µg/mL (≈ 35 µM); MIC Pseudomonas aeruginosa GN 1091 [8]: 25 µg/mL (≈ 35 µM); MIC Pseudomonas aeruginosa GN 2565 [8]: 50 µg/mL (≈ 70 µM); MIC Pseudomonas aeruginosa S-1 [8]: 50 µg/mL (≈ 70 µM); MIC Klebsiella pneumoniae GN 917 [9]: 1.56 µg/mL (≈ 2.19 µM); MIC Klebsiella pneumoniae GN 4081 [9]: 1.56 µg/mL (≈ 2.19 µM); MIC Proteus mirabilis [10]: 0.39 µg/mL (≈ 0.546 µM); MIC Proteus morganii [11]: 0.78 µg/mL (≈ 1.09 µM); MIC Proteus vulgaris [12]: 0.78 µg/mL (≈ 1.09 µM); MIC Proteus rettgeri [13]: 6.25 µg/mL (≈ 8.76 µM); Relative activity (%) against β-lactamase, E. freundii GN 346 [14]: 0.03%; Relative activity (%) against β-lactamase, Pr. vulgaris GN 76 [15]: 5%
CCN1CCN(C(=O)NC(C(=O)NC2C(=O)N3C(C(=O)O)=C(CSc4nnnn4C)CSC23)c2ccc(O)cc2)C(=O)C1=O (stereo not drawn) [Compound No. 72]	< 0.1	< 0.1	0.4 (≈ 0.62 µM)	6.25 (≈ 9.68 µM)	< 1.57	1.56 (≈ 2.42 µM)	1.56 (≈ 2.42 µM)	3.13 (≈ 4.85 µM)	1.56 (≈ 2.42 µM)	1.56 (≈ 2.42 µM)	0.1 (≈ 0.155 µM)	0.2 (≈ 0.31 µM)	1.56 (≈ 2.42 µM)	0.39 (≈ 0.604 µM)	0.39 (≈ 0.604 µM)	12.5 (≈ 19.4 µM)	12.5 (≈ 19.4 µM)	6.25 (≈ 9.68 µM)	6.25 (≈ 9.68 µM)	6.25 (≈ 9.68 µM)	MIC Pseudomonas aeruginosa GN 1035 [8]: 25 µg/mL (≈ 38.7 µM); MIC Pseudomonas aeruginosa GN 1091 [8]: 6.25 µg/mL (≈ 9.68 µM); MIC Pseudomonas aeruginosa GN 2565 [8]: 25 µg/mL (≈ 38.7 µM); MIC Pseudomonas aeruginosa S-1 [8]: 12.5 µg/mL (≈ 19.4 µM); MIC Klebsiella pneumoniae GN 917 [9]: 0.2 µg/mL (≈ 0.31 µM); MIC Klebsiella pneumoniae GN 4081 [9]: 1.56 µg/mL (≈ 2.42 µM); MIC Proteus mirabilis [10]: 0.78 µg/mL (≈ 1.21 µM); MIC Proteus morganii [11]: 0.78 µg/mL (≈ 1.21 µM); MIC Proteus vulgaris [12]: 0.39 µg/mL (≈ 0.604 µM); MIC Proteus rettgeri [13]: 1.56 µg/mL (≈ 2.42 µM); Relative activity (%) against β-lactamase, E. freundii GN 346 [14]: 0.2%; Relative activity (%) against β-lactamase, Pr. vulgaris GN 76 [15]: 7%
